This is an account of results in patent US8629102B2, “3-hydroxyisothiazole 1-oxide derivatives” (Mochida Pharmaceutical Co., Ltd., priority 2011, dated 2014).

Usually EC50 stands for the midpoint of the concentration-response curve.

T1 sequence (O14842 whole entry): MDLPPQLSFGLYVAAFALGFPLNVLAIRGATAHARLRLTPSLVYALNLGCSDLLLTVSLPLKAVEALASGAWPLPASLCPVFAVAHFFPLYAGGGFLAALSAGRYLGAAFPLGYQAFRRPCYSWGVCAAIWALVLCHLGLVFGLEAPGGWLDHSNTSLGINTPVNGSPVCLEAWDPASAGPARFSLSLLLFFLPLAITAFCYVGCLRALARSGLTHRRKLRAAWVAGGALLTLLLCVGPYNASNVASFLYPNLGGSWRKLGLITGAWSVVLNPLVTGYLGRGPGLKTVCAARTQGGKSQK

The experiment has as its target T1, GPR40 of human origin (Homo sapiens, UniProt O14842).
T1 construct: expressed in transfected cells
As to the kind of experiment: Agonist action on GPR40 of human origin (intracellular Ca2+ change). The following applies: CHO cell strain stably expressing GPR40 of human origin; change in Ca2+ concentration, fluorescent calcium indicator. The format is cell-based. The procedure, abridged: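 CHO cells stably expressing human GPR40, cultured overnight, then loaded 1 h with Calcium 4 dye plus probenecid in HEPES-buffered HBSS. Compound added in 20 mM HEPES-HBSS; intracellular Ca2+ change read by fluorescence, EC50 from dose-response of fluorescence change.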
On to `[O-][s+]1nc(O)cc1-c1ccc(O[C@@H]2CCc3c(Oc4ccsc4)cccc32)cc1` (stereo partly drawn) [Example 111, 3-hydroxy-5-(4-(((R)-4-(thiophen-3-yloxy)-2,3-dihydro-1H-inden-1-yl)oxy)phenyl)isothiazole 1-oxide], for which the concentration for a half-maximal effect (EC50) was under 300 nM. Turning to `CC(C)(O)CCOc1cccc(Oc2cccc3c2CC[C@H]3Oc2ccc(-c3cc(O)n[s+]3[O-])cc2)c1` (stereo partly drawn) [Example 112, 3-hydroxy-5-(4-(((R)-4-(3-(3-hydroxy-3-methylbutoxy)phenoxy)-2,3-dihydro-1H-inden-1-yl)oxy)phenyl)isothiazole 1-oxide], the concentration giving a half-maximal response (EC50) was under 300 nM.

As to `CC(C)(O)CCOc1ccc(Oc2cccc3c2CC[C@H]3Oc2ccc(-c3cc(O)n[s+]3[O-])cc2)cc1` (stereo partly drawn) [Example 113, 3-hydroxy-5-(4-(((R)-4-(4-(3-hydroxy-3-methylbutoxy)phenoxy)-2,3-dihydro-1H-inden-1-yl)oxy)phenyl)isothiazole 1-oxide], the EC50 is under 300 nM. Consider `COc1cc(Oc2cccc3c2CC[C@H]3Oc2ccc(-c3cc(O)n[s+]3[O-])cc2)ccn1` (stereo partly drawn) [Example 114, 3-hydroxy-5-(4-(((R)-4-((2-methoxypyridin-4-yl)oxy)-2,3-dihydro-1H-inden-1-yl)oxy)phenyl)isothiazole 1-oxide], for which the EC50 is under 300 nM. Next, `CS(=O)(=O)CCCOc1ccc(Oc2cccc3c2CC[C@H]3Oc2ccc(-c3cc(O)n[s+]3[O-])cc2)cc1` (stereo partly drawn) [Example 115, 3-hydroxy-5-(4-(((R)-4-(4-(3-(methylsulfonyl)propoxy)phenoxy)-2,3-dihydro-1H-inden-1-yl)oxy)phenyl)isothiazole 1-oxide]: under 300 nM; `CS(=O)(=O)CCCOc1ccc(Oc2cccc3c2CC[C@H]3Oc2ccc(-c3cc(O)n[s+]3[O-])cc2)cn1` (stereo partly drawn) [Example 116, 3-hydroxy-5-(4-(((R)-4-((6-(3-(methylsulfonyl)propoxy)pyridin-3-yl)oxy)-2,3-dihydro-1H-inden-1-yl)oxy)phenyl)isothiazole 1-oxide]: under 300 nM; `Cc1nc(OCCCS(C)(=O)=O)ccc1Oc1cccc2c1CC[C@H]2Oc1ccc(-c2cc(O)n[s+]2[O-])cc1` (stereo partly drawn) [Example 117, 3-hydroxy-5-(4-(((R)-4-((2-methyl-6-(3-(methylsulfonyl)propoxy)pyridin-3-yl)oxy)-2,3-dihydro-1H-inden-1-yl)oxy)phenyl)isothiazole 1-oxide]: under 300 nM. With `N#Cc1ccc(Oc2cccc3c2CC[C@H]3Oc2ccc(-c3cc(O)n[s+]3[O-])cc2)nc1` (stereo partly drawn) [Example 118, 6-(((1R)-1-(4-(3-hydroxy-1-oxidoisothiazol-5-yl)phenoxy)-2,3-dihydro-1H-inden-4-yl)oxy)nicotinonitrile], the EC50 is under 300 nM.

For `N#Cc1ccc(Oc2cccc3c2CC[C@H]3Oc2ccc(-c3cc(O)n[s+]3[O-])cc2)cn1` (stereo partly drawn) [Example 119, 5-(((1R)-1-(4-(3-hydroxy-1-oxidoisothiazol-5-yl)phenoxy)-2,3-dihydro-1H-inden-4-yl)oxy)picolinonitrile], the EC50 is under 300 nM. For `[O-][s+]1nc(O)cc1-c1ccc(OCC2=CC3(CCCCC3)CCC2)cc1` (stereo not shown) [Example 120, 3-hydroxy-5-(4-(spiro[5.5]undec-1-en-2-ylmethoxy)phenyl)isothiazole 1-oxide] the value was 300 to 3000 nM; for `Cc1cccc(C)c1N1CCC(COc2ccc(-c3cc(O)n[s+]3[O-])cc2)C1` (stereo not shown) [Example 121, 5-(4-((1-(2,6-dimethylphenyl)pyrrolidin-3-yl)methoxy)phenyl)-3-hydroxyisothiazole 1-oxide], 300 to 3000 nM. Take `[O-][s+]1nc(O)cc1-c1ccc(OCC2=CC3(CCCC3)CCC2)cc1` (stereo not shown) [Example 122, 3-hydroxy-5-(4-(spiro[4.5]dec-6-en-7-ylmethoxy)phenyl)isothiazole 1-oxide]: the EC50 is under 300 nM. Next, `[O-][s+]1nc(O)cc1-c1ccc(OCc2ccc(CN3CCC4(C=Cc5ccccc54)CC3)cc2)cc1` (stereo not shown) [Example 123, 3-hydroxy-5-(4-((4-(spiro[inden-1,4′-piperidin]-1′-ylmethyl)benzyl)oxy)phenyl)isothiazole 1-oxide]: 300 to 3000 nM.
